The text below walks through data of US10925876B2, “Methods for using triazolo-pyrazinyl soluble guanylate cyclase activators in fibrotic disorders” (Merck Sharp & Dohme Corp., priority 2016, dated 2021).

One test concerns the target T1, sGC α1/β1 heterodimer (Homo sapiens, UniProt Q02108+Q02153).
T1 construct: expressed in transfected cells
T1 sequence (Q02108 1-690): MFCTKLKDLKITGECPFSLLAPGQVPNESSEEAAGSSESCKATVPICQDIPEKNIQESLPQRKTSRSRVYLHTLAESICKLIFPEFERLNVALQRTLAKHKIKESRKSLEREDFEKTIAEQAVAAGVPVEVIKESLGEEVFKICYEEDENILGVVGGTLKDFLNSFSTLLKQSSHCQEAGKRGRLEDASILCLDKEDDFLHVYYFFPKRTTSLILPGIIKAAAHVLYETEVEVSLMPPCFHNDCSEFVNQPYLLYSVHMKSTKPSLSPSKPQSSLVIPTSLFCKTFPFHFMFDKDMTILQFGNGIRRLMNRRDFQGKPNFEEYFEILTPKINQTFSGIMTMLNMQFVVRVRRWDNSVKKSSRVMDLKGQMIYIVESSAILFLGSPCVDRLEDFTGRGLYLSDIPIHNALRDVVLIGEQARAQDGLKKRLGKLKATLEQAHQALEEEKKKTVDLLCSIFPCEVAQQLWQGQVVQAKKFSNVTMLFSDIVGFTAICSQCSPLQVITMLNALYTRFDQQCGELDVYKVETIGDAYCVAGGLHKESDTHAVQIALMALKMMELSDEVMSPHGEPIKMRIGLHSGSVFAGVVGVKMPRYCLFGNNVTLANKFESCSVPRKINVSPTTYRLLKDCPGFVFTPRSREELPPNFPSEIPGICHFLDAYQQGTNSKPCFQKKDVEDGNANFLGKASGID
T1 sequence (Q02153 1-619): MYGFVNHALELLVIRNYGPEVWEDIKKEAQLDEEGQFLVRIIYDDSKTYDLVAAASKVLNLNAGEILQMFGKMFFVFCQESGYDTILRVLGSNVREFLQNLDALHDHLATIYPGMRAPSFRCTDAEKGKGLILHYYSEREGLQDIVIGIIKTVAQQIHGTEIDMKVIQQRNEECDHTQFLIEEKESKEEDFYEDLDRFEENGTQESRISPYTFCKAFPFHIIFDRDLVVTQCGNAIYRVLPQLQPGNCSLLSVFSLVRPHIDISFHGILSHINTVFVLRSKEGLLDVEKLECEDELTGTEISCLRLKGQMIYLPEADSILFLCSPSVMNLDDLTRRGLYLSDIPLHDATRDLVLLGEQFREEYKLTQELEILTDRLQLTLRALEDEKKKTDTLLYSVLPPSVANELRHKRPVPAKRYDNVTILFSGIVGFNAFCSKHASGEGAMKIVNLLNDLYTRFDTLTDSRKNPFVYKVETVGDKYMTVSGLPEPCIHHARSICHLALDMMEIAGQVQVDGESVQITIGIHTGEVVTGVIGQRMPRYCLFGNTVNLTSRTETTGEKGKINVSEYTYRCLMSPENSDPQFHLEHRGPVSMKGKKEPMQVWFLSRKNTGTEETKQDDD
In words: Cell-Based sGC Functional Assay (CASA Assay), cGMP generation in CHO-K1/sGC cells.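 Further: reference Compound A is a published heme-dependent sGC activator.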 Conditions: maximum cGMP production of Compound A set to 100% activation, read-out: % Act. (percent activation relative to Compound A). A digest of the protocol: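 CHO-K1 cells stably expressing human sGC α1/β1, 4×10^5/mL in EBSS with 5 mM MgCl2, 10 mM HEPES, 0.05% BSA, 0.5 mM IBMX, 2.5% DMSO; compounds 1 h at 37 °C ± 1 μM DETA-NO. cGMP by HTRF, expressed as % of reference Compound A maximum; IP and max fold induction from 4P fit.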

For test [1], the system named is Spontaneously hypertensive rats (SHR). Kind of test: Acute Efficacy in Spontaneously Hypertensive Rats (SHR), telemetry blood pressure. In kind it is in vivo, rat. The following applies: single oral gavage. The source says:
Spontaneously hypertensive rats (SHR, male, Charles River) were implanted with DSI TA11PA-C40 telemetry device (Data Sciences, Inc., St. Paul, Minn.) under isoflurane or ketamine/metomidine anesthesia. The telemetry unit catheter was inserted into the descending aorta via the femoral artery and the telemetry device was implanted subcutaneously in the left flank area. Animals were allowed to recover from surgery for 14 days before the start of any studies. Blood pressure, heart rate, and activity signals from conscious, freely moving rats were recorded continuously for 30 seconds every 10 minutes. On the day prior to administration of compound, a single oral dose of vehicle (10% transcutol/20% Cremophor/70% water) was administered to all animals to establish baseline control data. The blood pressure lowering efficacy of compound (PO) or vehicle was evaluated following a single oral gavage. Data were collected as hourly averages, and changes in blood pressure were calculated by subtracting control baseline data on an hourly basis. Animals were maintained on normal diet with a 12 hour light-dark cycle.
Maximum peak decreases of systolic blood pressure (SBP) in SHR at a particular P.O. dose (mpk milligrams per kilogram) for the following representative compounds are provided. Category A=SBP in SHRs <20 mmHg; Category B=SBP in SHRs 20-40 mmHg; Category C=SBP in SHRs >40 mmHg.

For the molecule `CC1(c2ccc(C(F)(F)F)cn2)C(=O)Nc2nc(-c3cn4ncnc4c(CCCC(F)(F)F)n3)nc(N)c21` (stereo not drawn) [Example 25B, 4-amino-5-methyl-2-(8-(4,4,4-trifluorobutyl)-[1,2,4]triazolo[1,5-a]pyrazin-6-yl)-5-(5-(trifluoromethyl)pyridin-2-yl)-5H-pyrrolo[2,3-d]pyrimidin-6(7H)-one], the Emax at sGC α1/β1 heterodimer came out at 131%. The “Maximum peak decrease of systolic blood pressure (SBP) in SHR, Cat.” value (shortened to “Maximum peak decrease”) in test [1] (P.O. 0.3 mpk) is on record as “B (Category B=SBP in SHRs 20-40 mmHg)”.

As to `Nc1nc(-c2cn3ncnc3c(CCCC(F)(F)F)n2)nc2c1C(c1ccc(Cl)c(F)c1)(C1CC1)C(=O)N2` (stereo not drawn) [Example 33A, 4-amino-5-(4-chloro-3-fluorophenyl)-5-cyclopropyl-2-(8-(4,4,4-trifluorobutyl)-[1,2,4]triazolo[1,5-a]pyrazin-6-yl)-5H-pyrrolo[2,3-d]pyrimidin-6(7H)-one], the Emax at sGC α1/β1 heterodimer is 107%. Further, the “Maximum peak decrease” value in test [1] (P.O. 0.3 mpk) is recorded as “C (Category C=SBP in SHRs >40 mmHg)”.

As for `Nc1nc(-c2cn3ncnc3c(CCCC(F)(F)F)n2)nc2c1C(c1ccc(F)cn1)(C1CC1)C(=O)N2` (stereo not drawn) [Example 34A, 4-amino-5-cyclopropyl-5-(5-fluoropyridin-2-yl)-2-(8-(4,4,4-trifluorobutyl)-[1,2,4]triazolo[1,5-a]pyrazin-6-yl)-5H-pyrrolo[2,3-d]pyrimidin-6(7H)-one], at sGC α1/β1 heterodimer, the Emax amounted to 235%. In test [1] (P.O. 0.3 mpk), the “Maximum peak decrease” value is on record as “C (Category C=SBP in SHRs >40 mmHg)”.

As to `CC1(c2ccccn2)C(=O)Nc2nc(-c3cn4ncnc4c(CCCC(F)(F)F)n3)nc(N)c21` (stereo not drawn) [Example 36B, 4-amino-5-methyl-5-(pyridin-2-yl)-2-(8-(4,4,4-trifluorobutyl)-[1,2,4]triazolo[1,5-a]pyrazin-6-yl)-5H-pyrrolo[2,3-d]pyrimidin-6(7H)-one], the Emax at sGC α1/β1 heterodimer is 82%. Further, the “Maximum peak decrease” value in test [1] (P.O. 1 mpk) is listed as “B (Category B=SBP in SHRs 20-40 mmHg)”.

Regarding `COc1ccc(C2(C3CC3)C(=O)Nc3nc(-c4cn5ncnc5c(CCCC(F)(F)F)n4)nc(N)c32)nc1` (stereo not drawn) [Example 39A, 4-amino-5-cyclopropyl-5-(5-methoxypyridin-2-yl)-2-(8-(4,4,4-trifluorobutyl)-[1,2,4]triazolo[1,5-a]pyrazin-6-yl)-5H-pyrrolo[2,3-d]pyrimidin-6(7H)-one], the Emax on sGC α1/β1 heterodimer worked out at 96%. Also, the “Maximum peak decrease” value in test [1] (P.O. 0.3 mpk) is “B (Category B=SBP in SHRs 20-40 mmHg)”.

Consider `Nc1nc(-c2cn3ncnc3c(CCCC(F)(F)F)n2)nc2c1C(c1ncc(Cl)cn1)(C1CC1)C(=O)N2` (stereo not drawn) [Example 41A, 4-amino-5-(5-chloropyrimidin-2-yl)-5-cyclopropyl-2-(8-(4,4,4-trifluorobutyl)-[1,2,4]triazolo[1,5-a]pyrazin-6-yl)-5H-pyrrolo[2,3-d]pyrimidin-6(7H)-one], for which the Emax at sGC α1/β1 heterodimer was determined as 151%. Also, in test [1] (P.O. 0.3 mpk), the “Maximum peak decrease” value is listed as “B (Category B=SBP in SHRs 20-40 mmHg)”.

As for `CCCc1nc(-c2nc(N)c3c(n2)NC(=O)C3(c2ccc(C(F)(F)F)cn2)C2CC2)cn2ncnc12` (stereo not drawn) [Example 56A, 4-amino-5-cyclopropyl-2-(8-propyl-[1,2,4]triazolo[1,5-a]pyrazin-6-yl)-5-(5-(trifluoromethyl)pyridin-2-yl)-5H-pyrrolo[2,3-d]pyrimidin-6(7H)-one], at sGC α1/β1 heterodimer, the Emax was found to be 81%. Also, the “Maximum peak decrease” value in test [1] (P.O. 3 mpk) is given as “B (Category B=SBP in SHRs 20-40 mmHg)”.

As for `CCCCc1nc(-c2nc(N)c3c(n2)NC(=O)[C@@]3(C)c2ccc(F)cc2)cn2ncnc12` [Example 60A, (S)-4-amino-2-(8-butyl-[1,2,4]triazolo[1,5-a]pyrazin-6-yl)-5-(4-fluorophenyl)-5-methyl-5,7-dihydro-6H-pyrrolo[2,3-d]pyrimidin-6-one], the Emax on sGC α1/β1 heterodimer was 121%. The “Maximum peak decrease” value in test [1] (P.O. 0.3 mpk) was “C (Category C=SBP in SHRs >40 mmHg)”.

Turning to `CCCCc1nc(-c2nc(N)c3c(n2)NC(=O)C3(C)c2ccc(F)cn2)cn2ncnc12` (stereo not drawn) [Example 61B, 4-amino-2-(8-butyl-[1,2,4]triazolo[1,5-a]pyrazin-6-yl)-5-(5-fluoropyridin-2-yl)-5-methyl-5H-pyrrolo[2,3-d]pyrimidin-6(7H)-one], the Emax at sGC α1/β1 heterodimer turned out to be 177%. Besides, the “Maximum peak decrease” value in test [1] (P.O. 0.3 mpk) is reported as “C (Category C=SBP in SHRs >40 mmHg)”.

Take `CCCCc1nc(-c2nc(N)c3c(n2)NC(=O)C3(c2ccc(F)c(F)c2)C2CC2)cn2ncnc12` (stereo not drawn) [Example 65A, 4-amino-2-(8-butyl-[1,2,4]triazolo[1,5-a]pyrazin-6-yl)-5-cyclopropyl-5-(3,4-difluorophenyl)-5H-pyrrolo[2,3-d]pyrimidin-6(7H)-one]: the Emax on sGC α1/β1 heterodimer worked out at 104%. Moreover, in test [1] (P.O. 0.3 mpk), the “Maximum peak decrease” value is reported as “C (Category C=SBP in SHRs >40 mmHg)”.

For the molecule `CCCCc1nc(-c2nc(N)c3c(n2)NC(=O)C3(C)c2ccc(C(F)(F)F)cn2)cn2ncnc12` (stereo not drawn) [Example 67B, 4-amino-2-(8-butyl-[1,2,4]triazolo[1,5-a]pyrazin-6-yl)-5-methyl-5-(5-(trifluoromethyl)pyridin-2-yl)-5H-pyrrolo[2,3-d]pyrimidin-6(7H)-one], at sGC α1/β1 heterodimer, the Emax came out at 119%. The “Maximum peak decrease” value in test [1] (P.O. 0.3 mpk) is reported as “B (Category B=SBP in SHRs 20-40 mmHg)”.

Turning to `CC(C)Cc1nc(-c2nc(N)c3c(n2)NC(=O)[C@@]3(C)c2ccc(F)cc2)cn2ncnc12` [Example 73A, (S)-4-amino-5-(4-fluorophenyl)-2-(8-isobutyl-[1,2,4]triazolo[1,5-a]pyrazin-6-yl)-5-methyl-5,7-dihydro-6H-pyrrolo[2,3-d]pyrimidin-6-one], the Emax on sGC α1/β1 heterodimer was found to be 101%. For the same molecule, in test [1] (P.O. 1 mpk), the “Maximum peak decrease” value is “B (Category B=SBP in SHRs 20-40 mmHg)”.

Turning to `C[C@@]1(c2ccc(F)cc2)C(=O)Nc2nc(-c3cn4ncnc4c(CCC(F)(F)F)n3)nc(N)c21` [Example 74A, (S)-4-amino-5-(4-fluorophenyl)-5-methyl-2-(8-(3,3,3-trifluoropropyl)-[1,2,4]triazolo[1,5-a]pyrazin-6-yl)-5,7-dihydro-6H-pyrrolo[2,3-d]pyrimidin-6-one], the Emax at sGC α1/β1 heterodimer was 110%. The “Maximum peak decrease” value in test [1] (P.O. 1 mpk) is “B (Category B=SBP in SHRs 20-40 mmHg)”.

Take `CC1(c2ccc(Cl)cc2)C(=O)Nc2nc(-c3cn4ncnc4c(CCC(F)(F)F)n3)nc(N)c21` (stereo not drawn) [Example 76A, 4-amino-5-(4-chlorophenyl)-5-methyl-2-(8-(3,3,3-trifluoropropyl)-[1,2,4]triazolo[1,5-a]pyrazin-6-yl)-5H-pyrrolo[2,3-d]pyrimidin-6(7H)-one]: on sGC α1/β1 heterodimer, the Emax worked out at 120%. In addition, the “Maximum peak decrease” value in test [1] (P.O. 0.3 mpk) is “A (Category A=SBP in SHRs <20 mmHg)”.

Turning to `CC1(c2ccc(C(F)(F)F)cc2)C(=O)Nc2nc(-c3cn4ncnc4c(CCC(F)(F)F)n3)nc(N)c21` (stereo not drawn) [Example 77B, 4-amino-5-methyl-5-(4-(trifluoromethyl)phenyl)-2-(8-(3,3,3-trifluoropropyl)-[1,2,4]triazolo[1,5-a]pyrazin-6-yl)-5H-pyrrolo[2,3-d]pyrimidin-6(7H)-one], at sGC α1/β1 heterodimer, the Emax came to 112%. Further, the “Maximum peak decrease” value in test [1] (P.O. 1 mpk) is listed as “A (Category A=SBP in SHRs <20 mmHg)”.
